Entries after “also recorded” stand apart in the source; their conditions may differ.
Experiments:
[1] = tested on: microorganisms (e.g., bacteria, yeasts, fungi); experiment: Targeting peptide binding to target microorganisms (Table 3); settings: preferably 1x PBS
C. jeikeium = experiment: Kill or inhibit growth/proliferation; morphology, biofilm and growth disruption (Tables 5, 6); format: cell-based, Corynebacterium jeikeium; parameters: key: A: Peptide aggregates; B: Less hyphal formation; Clumps; Diffuse clumps and small polyps; F: Diffuse growth; H: Thin; I: Growth inhibition; Microcolony formation; Rippled; Small polyps; Thick; W: Halo formation on top, microlonies on bottom; further: test concentration or dose not given here
microorganisms = experiment: Peptides having multiple activities (targeting/binding, antimicrobial, growth or phenotype altering)
Source text: In certain embodiments, peptides described herein can have multiple activities. Thus for example, a peptide can have both binding/targeting activity and antimicrobial activity. Such peptides can be used, e.g., in a chimeric construct, for any or all of these properties. Thus, for example, a peptide designated “B” in Table 8 can be used as a targeting peptide. If it is also designated G or M it can also be used for antimicrobial activity.

E. coli = experiment: Kill or inhibit growth/proliferation; morphology, biofilm and growth disruption (Tables 5, 6); format: cell-based, Escherichia coli; parameters: key: A: Peptide aggregates; B: Less hyphal formation; Clumps; Diffuse clumps and small polyps; F: Diffuse growth; H: Thin; I: Growth inhibition; Microcolony formation; Rippled; Small polyps; Thick; W: Halo formation on top, microlonies on bottom; further: test concentration or dose not given here
E. faecalis = experiment: as above; format: cell-based, Enterococcus faecalis; parameters: key: A: Peptide aggregates; B: Less hyphal formation; Clumps; Diffuse clumps and small polyps; F: Diffuse growth; H: Thin; I: Growth inhibition; Microcolony formation; Rippled; Small polyps; Thick; W: Halo formation on top, microlonies on bottom
MRSA = experiment: as above; format: cell-based, Methicillin-resistant Staphylococcus aureus; parameters: key: A: Peptide aggregates; B: Less hyphal formation; Clumps; Diffuse clumps and small polyps; F: Diffuse growth; H: Thin; I: Growth inhibition; Microcolony formation; Rippled; Small polyps; Thick; W: Halo formation on top, microlonies on bottom
S. pneumoniae = experiment: as above; format: cell-based, Streptococcus pneumoniae; parameters: key: A: Peptide aggregates; B: Less hyphal formation; Clumps; Diffuse clumps and small polyps; F: Diffuse growth; H: Thin; I: Growth inhibition; Microcolony formation; Rippled; Small polyps; Thick; W: Halo formation on top, microlonies on bottom; further: test concentration or dose not given here
C. jejuni = experiment: as above; format: cell-based, Campylobacter jejuni; parameters: key: A: Peptide aggregates; B: Less hyphal formation; Clumps; Diffuse clumps and small polyps; F: Diffuse growth; H: Thin; I: Growth inhibition; Microcolony formation; Rippled; Small polyps; Thick; W: Halo formation on top, microlonies on bottom; further: test concentration or dose not given here
S. epidermidis = experiment: as above; format: cell-based, Staphylococcus epidermidis; parameters: key: A: Peptide aggregates; B: Less hyphal formation; Clumps; Diffuse clumps and small polyps; F: Diffuse growth; H: Thin; I: Growth inhibition; Microcolony formation; Rippled; Small polyps; Thick; W: Halo formation on top, microlonies on bottom
M. luteus = experiment: as above; format: cell-based, Micrococcus luteus; parameters: key: A: Peptide aggregates; B: Less hyphal formation; Clumps; Diffuse clumps and small polyps; F: Diffuse growth; H: Thin; I: Growth inhibition; Microcolony formation; Rippled; Small polyps; Thick; W: Halo formation on top, microlonies on bottom
[2] = microorganism(s) the targeting peptide binds, binding in aqueous buffers depending on peptide solubility
[3] = microorganism(s) the targeting peptide binds, peptide binding conducted in aqueous buffers varied by peptide solubility
Wherever Organism, effect is given: test concentration or dose not given here.

| Substance | Target(s) [1, 2] | Organism, effect (C. jeikeium) | Activities (microorganisms) | Organism, effect (E. coli) | Organism, effect (E. faecalis) | Organism, effect (MRSA) | Organism, effect (S. pneumoniae) | Organism, effect (C. jejuni) | Organism, effect (S. epidermidis) | Target(s) [1, 3] | Target(s) ([1]; microorganism the targeting peptide binds, binding in aqueous buffers varied by peptide solubility) | Target(s) (microorganisms bound by the targeting peptide) ([1]; peptide binding in aqueous buffers varied by peptide solubility) | Organism, effect (M. luteus) |
| --- | --- | --- | --- | --- | --- | --- | --- | --- | --- | --- | --- | --- | --- |
| PF-133: peptide having multiple activities (GDPTAGQKPVECP; Peptide with targeting and/or antimicrobial activity) | S. epidermidis; also recorded: C. jeikeium; also recorded: C. jejuni; also recorded: M. smegmatis | C. jeikeium (R) | G B |  |  |  |  |  |  |  |  |  |  |
| PF-188: peptide having multiple activities (ARTFAGRLGTRYFGGLMRSTKA; Peptide with targeting and/or antimicrobial activity) | S. epidermidis and M. luteus and E. coli and C. albicans and MRSA and E. faecalis | C. jeikeium (H) | G B |  |  |  |  |  |  |  |  |  |  |
| PF-586: peptide having multiple activities (FFNQANYFFKEF; Peptide with targeting and/or antimicrobial activity) |  |  | G B | E. coli (C) | E. faecalis (D) | MRSA (D) | S. pneumoniae (D) | C. jejuni (D) | S. epidermidis (C) |  |  |  |  |
| PF-135: peptide having multiple activities (PPARPARIPQTPTLHGASLFRQRS; Peptide with targeting and/or antimicrobial activity) | S. epidermidis and M. luteus and E. coli and P. aeruginosa and MRSA and C. jeikeium and M. smegmatis | C. jeikeium (R) | G B |  |  |  |  |  |  |  |  |  |  |
| PF-584: peptide having multiple activities (SYIKNLSNQKFLIAF; Peptide with targeting and/or antimicrobial activity) |  |  | G B | E. coli (C) | E. faecalis (D) | MRSA (D) | S. pneumoniae (D) | C. jejuni (D) | S. epidermidis (C) | S. epidermidis and M. luteus and P. mirabilis and C. albicans and MRSA and S. pneumoniae and E. faecalis and C. jeikeium |  |  |  |
| PF-615: peptide having multiple activities (FLNRFIFYIFTVKTKSALIKNLFLD; Peptide with targeting and/or antimicrobial activity) |  |  | G B | E. coli (C) | E. faecalis (D) | MRSA (D) | S. pneumoniae (D) | C. jejuni (D) | S. epidermidis (D) |  |  |  |  |
| PF-032 (RIVVPAHQSNMASTPNLSITP; Peptide with targeting and/or antimicrobial activity) |  | C. jeikeium (C) |  |  |  |  |  |  | S. epidermidis (S) |  |  |  |  |
| PF-363: peptide having multiple activities (chain 1 SMLSVTVMCLMHASVAANQAMEKKV; chain 2 SMLSVTVMCLMHASVAANQAMEKKV; Peptide with targeting and/or antimicrobial activity) | B. subtilis; also recorded: E. coli; also recorded: P. aeruginosa; also recorded: C. albicans; also recorded: S. pneumoniae; also recorded: E. faecalis |  | G B | E. coli (C) | E. faecalis (D) | MRSA (H) | S. pneumoniae (R) | C. jejuni (D) | S. epidermidis (S) |  |  |  |  |
| PF-596: peptide having multiple activities (SKMWDKILTILILILELIRELIKL; Peptide with targeting and/or antimicrobial activity) |  |  | G B | E. coli (C) | E. faecalis (D) | MRSA (D) | S. pneumoniae (D) | C. jejuni (D) | S. epidermidis (D) |  |  |  |  |
| PF-469: peptide having multiple activities (chain 1 YKVNYNNIDNHFNTLRH; chain 2 YKVNYNNIDNHFNTLRH; Peptide with targeting and/or antimicrobial activity) |  |  | G B | E. coli (C) | E. faecalis (D) | MRSA (D) | S. pneumoniae (D) | C. jejuni (D) | S. epidermidis (D) |  |  |  |  |
| PF-592: peptide having multiple activities (IMKNYKYFKLFIVKYALF; Peptide with targeting and/or antimicrobial activity) |  |  | G B | E. coli (C) | E. faecalis (D) | MRSA (D) | S. pneumoniae (D) | C. jejuni (S) | S. epidermidis (M) |  |  |  |  |
| PF-390: peptide having multiple activities (chain 1 VVAYVITQVGAIRF; chain 2 VVAYVITQVGAIRF; Peptide with targeting and/or antimicrobial activity) |  |  | G B | E. coli (C) | E. faecalis (D) | MRSA (D) | S. pneumoniae (D) | C. jejuni (D) | S. epidermidis (D) | S. epidermidis and P. aeruginosa and C. albicans and MRSA |  |  |  |
| PF-164: peptide having multiple activities (EEVSRALAGIGLGLGCRIG; Peptide with targeting and/or antimicrobial activity) | S. epidermidis; also recorded: M. luteus; also recorded: E. coli; also recorded: C. jeikeium | C. jeikeium (R) | G B |  |  |  |  |  |  |  |  |  |  |
| PF-011: peptide having multiple activities (chain 1 MFCYYKQHKGDNFSIEEVKNIIADNEMKVN; chain 2 MFCYYKQHKGDNFSIEEVKNIIADNEMKVN; Peptide with targeting and/or antimicrobial activity) |  | C. jeikeium (C) | G B |  |  | MRSA (R) |  |  |  |  | M. luteus; also recorded: E. coli; also recorded: P. aeruginosa; also recorded: S. pneumoniae; also recorded: C. jeikeium |  |  |
| PF-598: peptide having multiple activities (MKFMLEVRNKAISAYKEITRTQI; Peptide with targeting and/or antimicrobial activity) |  |  | G B | E. coli (C) | E. faecalis (R) | MRSA (D) | S. pneumoniae (R) | C. jejuni (R) | S. epidermidis (R) |  |  | S. epidermidis and M. luteus and P. mirabilis and P. aeruginosa and C. albicans and MRSA and S. pneumoniae and C. jeikeium |  |
| PF-610: peptide having multiple activities (VFLKLKTSKIDLASIIFYP; Peptide with targeting and/or antimicrobial activity) |  |  | G B | E. coli (C) | E. faecalis (D) | MRSA (D) | S. pneumoniae (D) | C. jejuni (D) | S. epidermidis (C) |  |  |  |  |
| PF-562: peptide having multiple activities (chain 1 TPEQWLERSTVVVTGLLNRK; chain 2 TPEQWLERSTVVVTGLLNRK; Peptide with targeting and/or antimicrobial activity) |  |  | G B |  |  | MRSA (M) | S. pneumoniae (D) | C. jejuni (R) | S. epidermidis (A) |  |  |  | M. luteus (R) |
